Laboratory results reported in patent publication US5789387A (priority 1996, dated 1998).
“Also recorded” adds a separate entry of the source.

Columns and labels:
[1] = tested on: Candida albicans strain B311; assay: quantitative recovery of viable yeast from kidneys in rat model of systemic candidiasis, continuous intravenous infusion; format: in vivo; conditions: for decrease in viable yeast per gram of tissue / Geometric mean log10 CFU/gm ± S.E.M. (kidney): 96 h; for Geometric mean log10 CFU/gm ± S.E.M. (kidney): inoculum 1×10^6 cfu/rat
Method: (§1) Candida albicans strain B311 (originally obtained from H. Hasenclever, National Institutes of Health, Bethesda, Md.) was employed in the following examples. For growth of yeast inocula, frozen culture aliquots were inoculated into 2% glucose, 1% yeast extract broth and grown at 35° C. with shaking until the culture entered the early log phase of growth. Yeast were collected by centrifugation, washed, and adjusted to the appropriate concentration in sterile phosphate-buffered saline (PBS).
A rat model of systemic candidiasis was used to assess the effect of nikkomycin Z in vivo. […] The inoculum and the subsequent drug treatment was administered via an indwelling catheter placed in the jugular vein that was "tunneled" out the back and placed inside a protective, flexible, metal sheath. For both experiments, therapy was initiated 12-14 h after infection with nikkomycin Z (formulated in a vehicle of 2% dimethylsulfoxide (DMSO)/ 98% dextrose (5%)) administered continuously at 330 mg/kg/day; control animals were treated with vehicle. In the first experiment, animals were treated continuously for 72 h. In the second experiment, animals were treated continuously for 96 h. Drug and vehicle were administered continuously at a volume of one ml per hour. At 7 or 9 h after cessation of treatment, respectively, all animals were euthanized for the removal of kidneys, which were cultured for the quantitative recovery of viable yeast. From each animal, the two kidneys were placed into tared, sterile tubes (one tube per animal, i.e., two kidneys per tube) containing ten ml of sterile PBS. The kidneys were then weighed and the tube contents homogenized. Organ homogenates were diluted in serial fashion and cultured on Sabourauds agar plates containing 50 μg/ml chloramphenicol for the quantitative recovery of viable yeast. The plates were incubated overnight at room temperature and colonies enumerated. Calculations were made to determine the log10 cfu's per gram of tissue for each animal.
Experiments similar to those described above were performed to determine the effectiveness of low doses of Nikkomycin Z in reducing the yeast load in organs of infected animals in the rat model of systemic candidiasis. Experimental details such as yeast used, growth conditions, rats used, and methods of inoculation and drug delivery were as described above in Sections 6.1 and 6.2. Inoculum levels were 1×10^6 cfu/rat. Therapy was initiated 14 h after yeast infection and nikkomycin Z was administered continuously at either 33 or 100 mg/kg/day for a total of 96 h; control animals were treated with vehicle. Test solutions were delivered from syringes using infusion pumps; syringes and solutions were changed daily. After cessation of treatment, all animals were euthanized for the removal of kidneys, which were cultured for the quantitative recovery of viable yeast. Organ removal and culture were done as above. Organ homogenates were cultured on Sabourauds agar and incubated overnight for the enumeration of yeasts as above.

Candida albicans B311 = assay: prevention of mortality in rats infected with lethal doses of Candida albicans, continuous intravenous infusion; format: in vivo, rat infected with Candida albicans B311
Method: as §1
Using methods similar to those described above, rats were infected intravenously with a higher inoculum level; i.e., 3.2×10^6 cfu/rat, to induce mortalities. Fourteen hours after infection, treatment by continuous infusion was initiated with nikkomycin Z administered continuously at 330 mg/kg/day; control animals were treated with vehicle. Treatment was continued for 96 h, then animals were held for a total of 28 days for observation of mortalities.
Experiments similar to those described above in this Section were performed to determine the effect of low doses of nikkomycin Z in preventing mortality in animals infected with Candida albicans. Using methods similar to those described above, rats were infected intravenously with 1.05×10^7 cfu/rat of C. albicans B311, a dose that would normally rapidly induce mortalities. The inoculum and the subsequent drug treatment was administered via an indwelling catheter placed in the jugular vein. For the experiment, therapy was initiated 14 h after infection with yeast and nikkomycin Z was administered continuously at 33 or 100 mg/kg/day; control animals were treated with vehicle. All animals were treated continuously for 96 h, with test solutions delivered from syringes using infusion pumps. Syringes and solutions were changed daily. Animals were held for a total of 30 days for observation of mortalities.

[2] = plasma levels after subcutaneous sustained release gel (PLURONIC F127) or single intravenous administration, HPLC; format: in vivo; conditions: rat, single intravenous administration, read-out: mean residence time (MRT), nikkomycin Z total compounds
[3] = plasma concentration of nikkomycin Z following continuous intravenous administration, HPLC/SPE; format: in vivo, rat (outbred male albino, strain S/A)
Method: The experimental animals were outbred male albino rats (strain S/A, Simonsen Laboratories, Gilroy, Calif.), 350-400 g average weight, housed one per cage, fed rodent chow and water ad libitum, and identified by ear tags. Rats receiving continuous intravenous administration of nikkomycin Z were cannulated in the left carotid artery and right jugular vein.
Continuous intravenous administration involved a 2 hour loading dose of 20 mg/kg/hour nikkomycin Z and then an infusion rate of 33 mg/kg/day over 24 hours. The formulation contained 1 mg/ml nikkomycin Z in sterile 5% dextrose. Blood samples of 1 ml were withdrawn at 0, 0.25, 0.5, 1, 2, 4, 6 and 12 h.
Nikkomycin Z was extracted from the plasma samples using solid phase extraction (SPE) columns. The SPE matrix was phenylboronate (PBA) which covalently binds nikkomycin Z at high pH. After washing with 20 mM sodium carbonate/bicarbonate alkaline buffer, nikkomycin Z was eluted from the extraction column with a 20 mM glycine solution at pH 1.2. Following a drying and reconstitution step, nikkomycin Z plasma concentration was determined using reverse phase HPLC. The plasma concentrations of nikkomycin Z derived from the HPLC analysis were plotted against time.

Coccidioides immitis = conditions: in vitro, literature; cited from earlier work
Candida albicans [4] = conditions: cited from earlier work
Candida albicans [5] = conditions: oral, 10-14 day period; cited from earlier work
C. albicans = conditions: subcutaneous, high concentrations; cited from earlier work
Candida = conditions: subcutaneous injections beginning one hour after inoculation; cited from earlier work
chitin synthase = conditions: in words; cited from earlier work
plants, fish, or mammals = conditions: under reasonable doses; cited from earlier work
chitin synthesis = conditions: subcutaneous, high concentrations; cited from earlier work
Candida albicans [6] = conditions: in vitro; prolonged exposure; literature; cited from earlier work
[7] = bolus intravenous once daily, up to 20 days

C[C@@H]([C@H](N)C(=O)N[C@H](C(=O)O)[C@H]1O[C@@H](n2ccc(=O)[nH]c2=O)[C@H](O)[C@@H]1O)[C@H](O)c1ccc(O)cn1 [nikkomycin Z]
reduction of yeast load in organs (in words) ([1]; 33 mg/kg/day continuous infusion, 96 h (4 days)): sufficient to dramatically reduce the yeast load in organs of infected animals; also recorded: significantly reduce the yeast organ load | decrease in viable yeast per gram of tissue ([1]; 33 mg/kg/day): approximately 1 log10 units | Geometric mean log10 CFU/gm ± S.E.M. (kidney) ([1]; 33 mg/kg/day): 4.23 ± 0.15 log10 CFU/gm | decrease in viable yeast per gram of tissue ([1]; 100 mg/kg/day): ~2 log10 units | Geometric mean log10 CFU/gm ± S.E.M. (kidney) ([1]; 100 mg/kg/day): 3.48 ± 0.15 log10 CFU/gm | Geometric mean log10 CFU/gm ± S.E.M. (kidney), Exp. 1 ([1]; Exp. 1, 330 mg/kg/day continuous infusion over 72 h, inoculum 6.2×10^5 cfu/rat): 3.09 ± .16 log10 CFU/gm | Geometric mean log10 CFU/gm ± S.E.M. (kidney), Exp. 2 ([1]; Exp. 2, 330 mg/kg/day continuous infusion over 96 h, inoculum […]10^6 cfu/rat): 3.73 ± .05 log10 CFU/gm | survival (Candida albicans B311; 33 mg/kg/day continuous infusion 96 h, inoculum 1.05×10^7 cfu/rat, 30 days observation): all animals receiving nikkomycin Z at either 33 or 100 mg/kg/day by continuous infusion survived the entire observation period; also recorded: complete protection of rats against a lethal challenge with Candida albicans | survival (Candida albicans B311; 100 mg/kg/day continuous infusion 96 h, inoculum 1.05×10^7 cfu/rat, 30 days observation): all animals receiving nikkomycin Z at either 33 or 100 mg/kg/day by continuous infusion survived the entire observation period | survival (Candida albicans B311; 330 mg/kg/day continuous infusion 96 h, inoculum 3.2×10^6 cfu/rat, 28 days observation): all animals receiving nikkomycin Z by continuous infusion survived the entire observation period | MRT [2]: 12 min | steady state plasma concentration ([3]; infusion 33 mg/kg/day intravenous after loading dose, 33 mg/kg/day): about 170 ng/ml | Tmax ([3]; rat, plasma, 2 hour loading dose of 20 mg/kg/h, then 33 mg/kg/day intravenous): 60 min | Cmax ([3]; rat, plasma, 2 hour loading dose of 20 mg/kg/h, then 33 mg/kg/day intravenous, read-out: maximum plasma concentration): ~6600 ng/mL | concentration at which C. immitis is rapidly susceptible (Coccidioides immitis): 60 to 100 µM | efficacy as characterized by others (Candida albicans [4]; [7]): modest efficacy; also recorded: limited efficacy | mortality of infected mice (Candida albicans [4]; [7]): a delay in the onset of mortalities in infected mice; also recorded: essentially all mice died shortly after cessation of therapy | promotion of survival and reduction of fungal burden in kidneys (prior studies) (Candida albicans [4]; summary of earlier studies with reasonable delay between challenge and administration (oral, iv bolus, sc)): at best in a fungistatic fashion with only marginal activity in promoting survival and only limited ability to reduce the fungal burden in the kidneys | survival (Candida albicans [5]): animals ultimately succumbed to infection | numbers of yeasts in kidneys / efficacy (C. albicans): treatment did not result in any reduction in numbers of yeasts | protection against experimental candidiasis (Candida): some protection | inhibition of chitin synthase (chitin synthase): potent inhibitor | toxicity (plants, fish, or mammals): no toxicity against plants, fish, or mammals under reasonable doses | chitin synthesis in vivo (chitin synthesis): depress chitin synthesis in vivo

NC(=O)OC[C@H](O)[C@@H](O)[C@H](N)C(=O)N[C@H](C(=O)O)[C@H]1O[C@@H](n2cc(C(=O)O)c(=O)[nH]c2=O)[C@H](O)[C@@H]1O [polyoxin D]
concentration at which C. immitis is rapidly susceptible (Coccidioides immitis): 60 to 100 µM | effect on Candida cells (in words) (Candida albicans [6]): exhibited a phenomenon called "chaining". Although deformed, these cells were able to survive several replications, though ultimately they became sensitive to osmotic pressures and would lyse
